Measurements published in patent US10376480B2, “Biguanide derivative, a preparation method thereof, and a pharmaceutical composition containing the biguanide derivative as an active ingredient” (Immunomet Therapeutics Inc., priority 2010, dated 2019).
Counter-ions that a name gives are not always drawn.

Legend:
HCT116 cells = experiment: Inhibition of cancer cell proliferation (MTT, GIC50); format: cell-based; settings: Homo sapiens, HCT-116, 48 hours incubation
Procedure: HCT116 cells derived from human colorectal cancer were used, and an effect of a biguanide derivative on the inhibition of cancer cell proliferation was confirmed by measuring a concentration value (cell growth inhibition concentration, GIC50) at which 50% of the cell growth was inhibited using a 3-(4,5-dimethylthiazol-2-yl)-2,5-diphenytetrazolium bromide (MTT) reagent.
First, HCT116 cells were put on a 96-well plate and cultured in a DMEM medium containing 10% bovine serum for 24 hours to each have cell count of approximately 5000. Subsequently, to obtain the GIC50 value of each compound, 100 μM (or 200 μM), 25 μM, 6.25 μM, 1.56 μM or 0.39 μM of the compound was treated to each culture medium and then incubated for 48 hours. To confirm living cells after treatment with the compound, MTT was added to each culture medium and further incubated for 3 hours. Generated formazane crystal was dissolved using dimethyl sulfoxide (DMSO) and absorbance of the solution was measured at 560 nm. After the 48-hour incubation, a ratio of a cell count cultured on a well plate not treated with the compound to a cell count on a well plate treated with compounds synthesized in the examples was indicated as cell viability (%) according to each administered concentration. A cell viability curve was plotted using the cell viability (%), and the calculated concentration value (GIC50) of the compound, at which 50% of the growth was inhibited was, to confirm an effect on the inhibition of cancer cell proliferation.

[1] = system: 5′-AMP-activated protein kinase (AMPK); experiment: AMPK activation (AMPKα Thr172 phosphorylation immunoassay) in MCF7 cells; format: cell-based, human; settings: for AMPK Activation (phosphorylated AMPKα Thr172) / fold induction at 50 µM: MCF7 cells; for AMPK Activation (phosphorylated AMPKα Thr172): 24 hours; for fold induction at 50 µM: 24 h, 50 μM vs. 0 (cells without compound)
Procedure: MCF7 cells derived from human breast cancer cells were used, and an effect of a biguanide derivative on 5′-AMP-activated protein kinase (AMPK) activation was confirmed using an AMPKα immunoassay kit (Invitrogen, catalog No. KHO0651).
The MCF7 cells were put on a 6-well plate and incubated in a DMEM medium containing 10% fetal bovine serum in an incubator to which 5% CO2 was supplied to have a cell count of approximately 5×10^5. 50 μM of derivatives synthesized in the examples were treated to the each culture medium, and the cells were incubated for 24 hours. Subsequently, the cells were lysed by a method presented in the operation manual of the AMPKα immunoassay kit, and 20 μg of cell lysates were yielded through protein assay. A degree of phosphorylation of an AMPKα threonine 172nd residue (Thr172) from the cell lysates were confirmed according to a method presented in the operation manual of the AMPKα immunoassay kit to thereby obtain results.
In addition, an experiment was performed in the same manner as described in Experimental Example 2 using metformin as a control group, and the results of an effect on AMPK activation were compared to the effect on AMPK activation when 1 mM metformin was treated.

IC50 (HCT116 cells) [µM]	melting point [°C]	Compound	AMPK Activation (phosphorylated AMPKα Thr172) ([1]; 50 μM compound)	fold induction at 50 µM ([1]; Homo sapiens)	AMPK Activation (phosphorylated AMPKα Thr172) ([1]; 1 mM metformin)	fold induction at 1000 µM ([1]; Homo sapiens, MCF7, 24 h, read-out: AMPK Activation fold)
17.2	135 to 137	Cl.N=C(NCCc1ccccc1)NC(=N)NC1CCCCCC1 [Example 15, N1-(phenethyl)-N5-cycloheptyl Biguanide Hydrochloride]	7.0	1.5		
> 200	140 to 141	CCN(CC)C(=N)NC(=N)N(CC)CC.Cl [Example 35, N1,N1,N5,N5-tetraethyl Biguanide Hydrochloride]	3.8	0.7		
> 200	138 to 140	Cl.N=C(NCc1ccccc1)NC(=N)NCc1cccnc1 [Example 12, N1-benzyl-N5-(pyridine-3-yl)methyl Biguanide Hydrochloride]	7.8	1.5		
> 200	117 to 118	CN(C)C(=N)NC(=N)NCC1CC1.Cl [Example 24, N1,N1-dimethyl-N5-cyclopropylmethyl Biguanide Hydrochloride]	5.1	1		
> 200	151 to 152	CN(C)C(=N)NC(=N)NCc1ccccc1.Cl [Example 28, N1,N1-dimethyl-N5-benzyl Biguanide Hydrochloride]	5.9	1.2		
> 100	191 to 192	CCCN(CCC)C(=N)NC(=N)Nc1cccc2cnccc12.Cl [Example 33, N1,N1-dipropyl-N5-(isoquinoline-5-yl) Biguanide Hydrochloride]	11.3	1.7		
8.4		CCCCCCNC(=N)NC(=N)NCc1ccccc1.Cl [Example 4, N1-hexyl-N5-benzyl Biguanide Hydrochloride]	15.5	6.2		
> 200	186 to 187	CN(C)C(=N)NC(=N)NC(C)(C)C.Cl [Example 20, N1,N1-dimethyl-N5-t-butyl Biguanide Hydrochloride]	4.6	0.9		
18.3		COc1ccc(NC(=N)NC(=N)Nc2ccc(Cl)cc2)cc1 [Example 7, N1-(4-chloro)phenyl-N5-(4-methoxy)phenyl Biguanide Hydrochloride]				
3.2	263 to 264	Cl.N=C(NC(=N)Nc1ccc(Cl)cc1)Nc1ccc(Cl)cc1 [Example 5, N1,N5-bis(4-chlorophenyl) Biguanide Hydrochloride]				
23.8		CCCCCCNC(=N)NC(=N)NCCC.Cl [Example 1, N1-hexyl-N5-propyl Biguanide Hydrochloride]	35.6	6.7		
> 200	100 to 102	COC(=O)CCNC(=N)NC(=N)N(C)C.Cl [Example 22, N1,N1-dimethyl-N5-(methoxycarbonylethyl)biguanide Hydrochloride]	3.2	0.6		
> 200	176 to 177	CN(C)C(=N)NC(=N)NCc1ccco1.Cl [Example 26, N1,N1-dimethyl-N5-(furan-2-yl)methyl Biguanide Hydrochloride]	8.9	1.7		
5.9	255 to 257	Cl.N=C(NC(=N)Nc1ccc(Cl)c(Cl)c1)Nc1ccc(Cl)c(Cl)c1 [Example 9, N1,N5-bis(3,4-dichlorophenyl) Biguanide Hydrochloride]				
> 200	110 to 112	CCC(C)NC(=N)NC(=N)N(C)C.Cl (stereo not drawn) [Example 19, N1,N1-dimethyl-N5-(butane-2-yl) Biguanide Hydrochloride]	3.6	0.7		
2170		CN(C)C(=N)N=C(N)N [Metformin HCl, reference compound]			21.5 (@ 1 mM)	3.2
> 100	151 to 152	CCCN(CCC)C(=N)NC(=N)N(CC)CC.Cl [Example 37, N1,N1-dipropyl-N5,N5-diethyl Biguanide Hydrochloride]	33.3	6.3		
28.3	219 to 220	CCN(CC)C(=N)NC(=N)Nc1cccc(Cl)c1.Cl [Example 30, N1,N1-diethyl-N5-(3-chloro)phenyl Biguanide Hydrochloride]	19.3	7.7		
> 200	131 to 133	CCCCCNC(=N)NC(=N)N(C)C.Cl [Example 21, N1,N1-dimethyl-N5-pentyl Biguanide Hydrochloride]	5.6	1.1		
7.6	201 to 202	CCCN(CCC)C(=N)NC(=N)Nc1cccc(Cl)c1.Cl [Example 31, N1,N1-dipropyl-N5-(3-chloro)phenyl Biguanide Hydrochloride]				
> 100		CCCCCCNC(=N)NC(=N)NCC1CCCCC1.Cl [Example 3, N1-hexyl-N5-cyclohexylmethyl Biguanide Hydrochloride]	13.1	1.9		
7.8		CCCCCCN(CCCCCC)C(=N)NC(=N)Nc1cccc(Cl)c1 [Example 34, N1,N1-dihexyl-N5-(3-chloro)phenyl Biguanide Hydrochloride]				
> 100	272 to 273	CN(C)C(=N)NC(=N)Nc1ccc(Br)cc1.Cl [Example 25, N1,N1-dimethyl-N5-(4-bromo)phenyl Biguanide Hydrochloride]	23.1	4.4		
17	203 to 204	COc1ccc(NC(=N)NC(=N)Nc2ccc(OC)c(Cl)c2)cc1Cl.Cl [Example 8, N1,N5-bis(3-chloro-4-methoxyphenyl) Biguanide Hydrochloride]				
> 200	155 to 157	CN(C)C(=N)NC(=N)NCCc1ccccc1.Cl [Example 29, N1,N1-dimethyl-N5-(phenethyl) Biguanide Hydrochloride]	14.7	2.8		
> 200	110 to 112	CCCN(CC)C(=N)NC(=N)Nc1ccc(Cl)cc1.Cl [Example 32, N1,N1-(ethyl)(propyl)-N5-(4-chloro)phenyl Biguanide Hydrochloride]	5.2	1		
36	110 to 111	CCCN(CCC)C(=N)NC(=N)N(C)CCc1ccccc1.Cl [Example 38, N1,N1-dipropyl-N5,N5-(methyl)(phenethyl) Biguanide Hydrochloride]	35.8	6.8		
> 200	132 to 133	CN(C)C(=N)NC(=N)NC1CCCCCC1.Cl [Example 23, N1,N1-dimethyl-N5-cycloheptyl Biguanide Hydrochloride]	5.4	1		
6.3	250 to 251	Cl.N=C(NC(=N)Nc1cc(Cl)cc(Cl)c1)Nc1cc(Cl)cc(Cl)c1 [Example 10, N1,N5-bis(3,5-dichlorophenyl) Biguanide Hydrochloride]				
3.1	242 to 243	Cl.N=C(NC(=N)Nc1ccc(Br)cc1)Nc1ccc(Br)cc1 [Example 11, N1,N5-bis(4-bromophenyl) Biguanide Hydrochloride]				

Compound	IC50 (HCT116 cells) [µM]	melting point [°C]	AMPK Activation (phosphorylated AMPKα Thr172) ([1]; 50 μM compound)	fold induction at 50 µM ([1]; Homo sapiens)	AMPK Activation (phosphorylated AMPKα Thr172) ([1]; 1 mM metformin)	fold induction at 1000 µM ([1]; Homo sapiens, MCF7, 24 h, read-out: AMPK Activation fold)
CN(C)C(=N)NC(=N)NCc1cccnc1.Cl [Example 27, N1,N1-dimethyl-N5-(pyridine-3-yl)methyl Biguanide Hydrochloride]	> 200	112 to 114	4.6	0.9		
